Source: ChEMBL document CHEMBL1201861, “Genomics of Drug Sensitity in Cancer screening data, Wellcome Trust Sanger Institute”

System: MLMA;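 note: growth inhibition of MLMA cells (human), determined through a cell viability readout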
Assay: cells
Type: functional, cell-based, Homo sapiens
Settings: Homo sapiens, MLMA
Description: SANGER: Inhibition of human MLMA cell growth in a cell viability assay.

Compound	IC50 [µM]
Cc1ccc(-n2nc(C(C)(C)C)cc2NC(=O)Nc2ccc(OCCN3CCOCC3)c3ccccc23)cc1 [DORAMAPIMOD]	> 10

System: HT
Assay: cells
Type: functional, cell-based, Homo sapiens
Settings: Homo sapiens, HT
Description: SANGER: Inhibition of human HT cell growth in a cell viability assay.

Compound	IC50 [µM]
Cc1ccc(-n2nc(C(C)(C)C)cc2NC(=O)Nc2ccc(OCCN3CCOCC3)c3ccccc23)cc1 [DORAMAPIMOD]	> 10

System: A253 cell line;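 note: growth inhibition of A253 cells, read out with a cell viability assay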
Assay: cells
Type: functional, cell-based, Homo sapiens
Settings: Homo sapiens, A253
Description: SANGER: Inhibition of human A253 cell growth in a cell viability assay.

Compound	IC50 [µM]
Cc1ccc(-n2nc(C(C)(C)C)cc2NC(=O)Nc2ccc(OCCN3CCOCC3)c3ccccc23)cc1 [DORAMAPIMOD]	> 10

System: MZ1-PC;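 note: cell viability assay measuring growth inhibition of human MZ1-PC cells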
Assay: cells
Type: functional, cell-based, Homo sapiens
Settings: Homo sapiens, MZ1-PC
Description: SANGER: Inhibition of human MZ1-PC cell growth in a cell viability assay.

Compound	IC50 [µM]
Cc1ccc(-n2nc(C(C)(C)C)cc2NC(=O)Nc2ccc(OCCN3CCOCC3)c3ccccc23)cc1 [DORAMAPIMOD]	> 10

System: EW-3;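 note: cell viability assay read-out, IC50 reflects inhibition of growth of the EW-3 cells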
Assay: cells
Type: functional, cell-based, Homo sapiens
Settings: Homo sapiens, EW-3
Description: SANGER: Inhibition of human EW-3 cell growth in a cell viability assay.

Compound	IC50 [µM]
Cc1ccc(-n2nc(C(C)(C)C)cc2NC(=O)Nc2ccc(OCCN3CCOCC3)c3ccccc23)cc1 [DORAMAPIMOD]	> 10

System: PSN1;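 note: suppression of growth of human PSN1 cells, read out by a cell viability assay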
Assay: cells
Type: functional, cell-based, Homo sapiens
Settings: Homo sapiens, PSN1
Description: SANGER: Inhibition of human PSN1 cell growth in a cell viability assay.

Compound	IC50 [µM]
Cc1ccc(-n2nc(C(C)(C)C)cc2NC(=O)Nc2ccc(OCCN3CCOCC3)c3ccccc23)cc1 [DORAMAPIMOD]	> 10

System: NOS-1;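 note: growth inhibition of the human NOS-1 cell line, read out with a cell viability assay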
Assay: cells
Type: functional, cell-based, Homo sapiens
Settings: Homo sapiens, NOS-1
Description: SANGER: Inhibition of human NOS-1 cell growth in a cell viability assay.

Compound	IC50 [µM]
Cc1ccc(-n2nc(C(C)(C)C)cc2NC(=O)Nc2ccc(OCCN3CCOCC3)c3ccccc23)cc1 [DORAMAPIMOD]	> 10

System: DSH1;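 note: growth inhibition of human DSH1 cells, measured with a cell viability readout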
Assay: cells
Type: functional, cell-based
Settings: Homo sapiens
Description: SANGER: Inhibition of human DSH1 cell growth in a cell viability assay.

Compound	IC50 [µM]
Cc1ccc(-n2nc(C(C)(C)C)cc2NC(=O)Nc2ccc(OCCN3CCOCC3)c3ccccc23)cc1 [DORAMAPIMOD]	> 10

System: KP-N-YS;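 note: cell viability assay measuring inhibition of cell line growth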
Assay: cells
Type: functional, cell-based, Homo sapiens
Settings: Homo sapiens, KP-N-YS
Description: SANGER: Inhibition of human KP-N-YS cell growth in a cell viability assay.

Compound	IC50 [µM]
Cc1ccc(-n2nc(C(C)(C)C)cc2NC(=O)Nc2ccc(OCCN3CCOCC3)c3ccccc23)cc1 [DORAMAPIMOD]	> 10

System: RKO;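 note: growth inhibition of human RKO cells, read out with a cell viability assay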
Assay: cells
Type: functional, cell-based, Homo sapiens
Settings: Homo sapiens, RKO
Description: SANGER: Inhibition of human RKO cell growth in a cell viability assay.

Compound	IC50 [µM]
Cc1ccc(-n2nc(C(C)(C)C)cc2NC(=O)Nc2ccc(OCCN3CCOCC3)c3ccccc23)cc1 [DORAMAPIMOD]	> 10

System: ES3;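 note: growth inhibition of ES3 cells, read out with a cell viability assay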
Assay: cells
Type: functional, cell-based, Homo sapiens
Settings: Homo sapiens, ES3
Description: SANGER: Inhibition of human ES3 cell growth in a cell viability assay.

Compound	IC50 [µM]
Cc1ccc(-n2nc(C(C)(C)C)cc2NC(=O)Nc2ccc(OCCN3CCOCC3)c3ccccc23)cc1 [DORAMAPIMOD]	> 10

System: U-266
Assay: cells
Type: functional, cell-based, Homo sapiens
Settings: Homo sapiens, U-266
Description: SANGER: Inhibition of human U-266 cell growth in a cell viability assay.

Compound	IC50 [µM]
Cc1ccc(-n2nc(C(C)(C)C)cc2NC(=O)Nc2ccc(OCCN3CCOCC3)c3ccccc23)cc1 [DORAMAPIMOD]	> 10

System: KU812 cell line;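 note: growth inhibition of KU812 cells, read out with a cell viability assay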
Assay: cells
Type: functional, cell-based, Homo sapiens
Settings: Homo sapiens, KU812
Description: SANGER: Inhibition of human KU812 cell growth in a cell viability assay.

Compound	IC50 [µM]
Cc1ccc(-n2nc(C(C)(C)C)cc2NC(=O)Nc2ccc(OCCN3CCOCC3)c3ccccc23)cc1 [DORAMAPIMOD]	> 10

System: J-RT3-T3-5;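 note: cell viability assay measuring growth inhibition of human J-RT3-T3-5 cells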
Assay: cells
Type: functional, cell-based, Homo sapiens
Settings: Homo sapiens, J-RT3-T3-5
Description: SANGER: Inhibition of human J-RT3-T3-5 cell growth in a cell viability assay.

Compound	IC50 [µM]
Cc1ccc(-n2nc(C(C)(C)C)cc2NC(=O)Nc2ccc(OCCN3CCOCC3)c3ccccc23)cc1 [DORAMAPIMOD]	> 10

System: SW 962;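 note: growth inhibition of human SW962 cells, read out by a cell viability assay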
Assay: cells
Type: functional, cell-based, Homo sapiens
Settings: Homo sapiens, SW 962
Description: SANGER: Inhibition of human SW962 cell growth in a cell viability assay.

Compound	IC50 [µM]
Cc1ccc(-n2nc(C(C)(C)C)cc2NC(=O)Nc2ccc(OCCN3CCOCC3)c3ccccc23)cc1 [DORAMAPIMOD]	> 10

System: SK-MEL-2;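 note: growth inhibition of human SK-MEL-2 cells measured with a cell viability assay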
Assay: cells
Type: functional, cell-based, Homo sapiens
Settings: Homo sapiens, SK-MEL-2
Description: SANGER: Inhibition of human SK-MEL-2 cell growth in a cell viability assay.

Compound	IC50 [µM]
Cc1ccc(-n2nc(C(C)(C)C)cc2NC(=O)Nc2ccc(OCCN3CCOCC3)c3ccccc23)cc1 [DORAMAPIMOD]	> 10

System: D-263MG
Assay: cells
Type: functional, cell-based, Homo sapiens
Settings: Homo sapiens, D-263MG
Description: SANGER: Inhibition of human D-263MG cell growth in a cell viability assay.

Compound	IC50 [µM]
Cc1ccc(-n2nc(C(C)(C)C)cc2NC(=O)Nc2ccc(OCCN3CCOCC3)c3ccccc23)cc1 [DORAMAPIMOD]	> 10

System: LS-411N
Assay: cells
Type: functional, cell-based, Homo sapiens
Settings: Homo sapiens, LS-411N

Compound	IC50 [µM]
Cc1ccc(-n2nc(C(C)(C)C)cc2NC(=O)Nc2ccc(OCCN3CCOCC3)c3ccccc23)cc1 [DORAMAPIMOD]	> 10

System: NCI-H1581;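 note: cell growth inhibition read out by a viability assay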
Assay: cells
Type: functional, cell-based, Homo sapiens
Settings: Homo sapiens, NCI-H1581
Description: SANGER: Inhibition of human NCI-H1581 cell growth in a cell viability assay.

Compound	IC50 [µM]
Cc1ccc(-n2nc(C(C)(C)C)cc2NC(=O)Nc2ccc(OCCN3CCOCC3)c3ccccc23)cc1 [DORAMAPIMOD]	> 10

System: BB65-RCC;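 note: growth inhibition of the cell line, measured with a cell viability assay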
Assay: cells
Type: functional, cell-based, Homo sapiens
Settings: Homo sapiens, BB65-RCC
Description: SANGER: Inhibition of human BB65-RCC cell growth in a cell viability assay.

Compound	IC50 [µM]
Cc1ccc(-n2nc(C(C)(C)C)cc2NC(=O)Nc2ccc(OCCN3CCOCC3)c3ccccc23)cc1 [DORAMAPIMOD]	> 10

System: COLO-824
Assay: cells
Type: functional, cell-based, Homo sapiens
Settings: Homo sapiens, COLO-824
Description: SANGER: Inhibition of human COLO-824 cell growth in a cell viability assay.

Compound	IC50 [µM]
Cc1ccc(-n2nc(C(C)(C)C)cc2NC(=O)Nc2ccc(OCCN3CCOCC3)c3ccccc23)cc1 [DORAMAPIMOD]	> 10

System: OMC-1;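 note: growth inhibition of the OMC-1 cell line, measured by a cell viability assay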
Assay: cells
Type: functional, cell-based, Homo sapiens
Settings: Homo sapiens, OMC-1
Description: SANGER: Inhibition of human OMC-1 cell growth in a cell viability assay.

Compound	IC50 [µM]
Cc1ccc(-n2nc(C(C)(C)C)cc2NC(=O)Nc2ccc(OCCN3CCOCC3)c3ccccc23)cc1 [DORAMAPIMOD]	> 10

System: BT-474
Assay: cells
Type: functional, cell-based, Homo sapiens
Settings: Homo sapiens, BT-474
Description: SANGER: Inhibition of human BT-474 cell growth in a cell viability assay.

Compound	IC50 [µM]
Cc1ccc(-n2nc(C(C)(C)C)cc2NC(=O)Nc2ccc(OCCN3CCOCC3)c3ccccc23)cc1 [DORAMAPIMOD]	> 10

System: CGTH-W-1;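 note: growth inhibition of human CGTH-W-1 cells measured by cell viability assay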
Assay: cells
Type: functional, cell-based, Homo sapiens
Settings: Homo sapiens, CGTH-W-1
Description: SANGER: Inhibition of human CGTH-W-1 cell growth in a cell viability assay.

Compound	IC50 [µM]
Cc1ccc(-n2nc(C(C)(C)C)cc2NC(=O)Nc2ccc(OCCN3CCOCC3)c3ccccc23)cc1 [DORAMAPIMOD]	> 10

System: JVM-3;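 note: growth inhibition of human JVM-3 cells, read out with a cell viability assay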
Assay: cells
Type: functional, cell-based, Homo sapiens
Settings: Homo sapiens, JVM-3
Description: SANGER: Inhibition of human JVM-3 cell growth in a cell viability assay.

Compound	IC50 [µM]
Cc1ccc(-n2nc(C(C)(C)C)cc2NC(=O)Nc2ccc(OCCN3CCOCC3)c3ccccc23)cc1 [DORAMAPIMOD]	> 10

System: TE-11;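 note: growth inhibition of human TE-11 cells, read out by a cell viability assay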
Assay: cells
Type: functional, cell-based
Settings: Homo sapiens
Description: SANGER: Inhibition of human TE-11 cell growth in a cell viability assay.

Compound	IC50 [µM]
Cc1ccc(-n2nc(C(C)(C)C)cc2NC(=O)Nc2ccc(OCCN3CCOCC3)c3ccccc23)cc1 [DORAMAPIMOD]	> 10

System: RS4-11;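 note: growth inhibition of RS4-11 cells, read out by a cell viability assay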
Assay: cells
Type: functional, cell-based, Homo sapiens
Settings: Homo sapiens, RS4-11
Description: SANGER: Inhibition of human RS4-11 cell growth in a cell viability assay.

Compound	IC50 [µM]
Cc1ccc(-n2nc(C(C)(C)C)cc2NC(=O)Nc2ccc(OCCN3CCOCC3)c3ccccc23)cc1 [DORAMAPIMOD]	> 10

System: NCI-H1092;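 note: cell growth inhibition measured with a cell viability assay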
Assay: cells
Type: functional, cell-based, Homo sapiens
Settings: Homo sapiens, NCI-H1092
Description: SANGER: Inhibition of human NCI-H1092 cell growth in a cell viability assay.

Compound	IC50 [µM]
Cc1ccc(-n2nc(C(C)(C)C)cc2NC(=O)Nc2ccc(OCCN3CCOCC3)c3ccccc23)cc1 [DORAMAPIMOD]	> 10

System: NCI-H1648;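 note: cell viability assay measuring inhibition of NCI-H1648 cell growth, from the Sanger screening data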
Assay: cells
Type: functional, cell-based, Homo sapiens
Settings: Homo sapiens, NCI-H1648
Description: SANGER: Inhibition of human NCI-H1648 cell growth in a cell viability assay.

Compound	IC50 [µM]
Cc1ccc(-n2nc(C(C)(C)C)cc2NC(=O)Nc2ccc(OCCN3CCOCC3)c3ccccc23)cc1 [DORAMAPIMOD]	> 10

System: TGBC1TKB;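 note: growth inhibition of TGBC1TKB cells, read out by a cell viability assay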
Assay: cells
Type: functional, cell-based, Homo sapiens
Settings: Homo sapiens, TGBC1TKB
Description: SANGER: Inhibition of human TGBC1TKB cell growth in a cell viability assay.

Compound	IC50 [µM]
Cc1ccc(-n2nc(C(C)(C)C)cc2NC(=O)Nc2ccc(OCCN3CCOCC3)c3ccccc23)cc1 [DORAMAPIMOD]	> 10

System: KNS-81-FD;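 note: growth inhibition of KNS-81-FD cells, read out with a cell viability assay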
Assay: cells
Type: functional, cell-based, Homo sapiens
Settings: Homo sapiens, KNS-81-FD
Description: SANGER: Inhibition of human KNS-81-FD cell growth in a cell viability assay.

Compound	IC50 [µM]
Cc1ccc(-n2nc(C(C)(C)C)cc2NC(=O)Nc2ccc(OCCN3CCOCC3)c3ccccc23)cc1 [DORAMAPIMOD]	> 10

System: KARPAS-299
Assay: cells
Type: functional, cell-based, Homo sapiens
Settings: Homo sapiens, KARPAS-299
Description: SANGER: Inhibition of human KARPAS-299 cell growth in a cell viability assay.

Compound	IC50 [µM]
Cc1ccc(-n2nc(C(C)(C)C)cc2NC(=O)Nc2ccc(OCCN3CCOCC3)c3ccccc23)cc1 [DORAMAPIMOD]	> 10

System: TE-5;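 note: inhibition of cell growth, read out by a cell viability assay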
Assay: cells
Type: functional, cell-based, Homo sapiens
Settings: Homo sapiens, TE-5
Description: SANGER: Inhibition of human TE-5 cell growth in a cell viability assay.

Compound	IC50 [µM]
Cc1ccc(-n2nc(C(C)(C)C)cc2NC(=O)Nc2ccc(OCCN3CCOCC3)c3ccccc23)cc1 [DORAMAPIMOD]	> 10

System: ES1;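 note: growth inhibition of ES1 cells, read out with a cell viability assay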
Assay: cells
Type: functional, cell-based, Homo sapiens
Settings: Homo sapiens, ES1
Description: SANGER: Inhibition of human ES1 cell growth in a cell viability assay.

Compound	IC50 [µM]
Cc1ccc(-n2nc(C(C)(C)C)cc2NC(=O)Nc2ccc(OCCN3CCOCC3)c3ccccc23)cc1 [DORAMAPIMOD]	> 10

System: UACC-257
Assay: cells
Type: functional, cell-based, Homo sapiens
Settings: Homo sapiens, UACC-257
Description: SANGER: Inhibition of human UACC-257 cell growth in a cell viability assay.

Compound	IC50 [µM]
Cc1ccc(-n2nc(C(C)(C)C)cc2NC(=O)Nc2ccc(OCCN3CCOCC3)c3ccccc23)cc1 [DORAMAPIMOD]	> 10

System: SNU1;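 note: growth inhibition of human NCI-SNU-1 cells, measured with a cell viability assay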
Assay: cells
Type: functional, cell-based, Homo sapiens
Settings: Homo sapiens, SNU1
Description: SANGER: Inhibition of human NCI-SNU-1 cell growth in a cell viability assay.

Compound	IC50 [µM]
Cc1ccc(-n2nc(C(C)(C)C)cc2NC(=O)Nc2ccc(OCCN3CCOCC3)c3ccccc23)cc1 [DORAMAPIMOD]	9.07

System: HCE-4;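 note: cell viability assay measuring inhibition of growth in the human HCE-4 cell line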
Assay: cells
Type: functional, cell-based
Settings: Homo sapiens
Description: SANGER: Inhibition of human HCE-4 cell growth in a cell viability assay.

Compound	IC50 [µM]
Cc1ccc(-n2nc(C(C)(C)C)cc2NC(=O)Nc2ccc(OCCN3CCOCC3)c3ccccc23)cc1 [DORAMAPIMOD]	> 10

System: KM12;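 note: KM12 cell growth inhibition, read out with a cell viability assay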
Assay: cells
Type: functional, cell-based, Homo sapiens
Settings: Homo sapiens, KM12
Description: SANGER: Inhibition of human KM12 cell growth in a cell viability assay.

Compound	IC50 [µM]
Cc1ccc(-n2nc(C(C)(C)C)cc2NC(=O)Nc2ccc(OCCN3CCOCC3)c3ccccc23)cc1 [DORAMAPIMOD]	> 10

System: KG-1;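 note: growth inhibition of KG-1 cells, read out by a cell viability assay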
Assay: cells
Type: functional, cell-based, Homo sapiens
Settings: Homo sapiens, KG-1
Description: SANGER: Inhibition of human KG-1 cell growth in a cell viability assay.

Compound	IC50 [µM]
Cc1ccc(-n2nc(C(C)(C)C)cc2NC(=O)Nc2ccc(OCCN3CCOCC3)c3ccccc23)cc1 [DORAMAPIMOD]	> 10

System: EW-1;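 note: growth inhibition of the human EW-1 cell line, read out by a cell viability assay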
Assay: cells
Type: functional, cell-based, Homo sapiens
Settings: Homo sapiens, EW-1
Description: SANGER: Inhibition of human EW-1 cell growth in a cell viability assay.

Compound	IC50 [µM]
Cc1ccc(-n2nc(C(C)(C)C)cc2NC(=O)Nc2ccc(OCCN3CCOCC3)c3ccccc23)cc1 [DORAMAPIMOD]	> 10

System: KALS-1;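 note: growth inhibition of KALS-1 cells, determined with a cell viability assay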
Assay: cells
Type: functional, cell-based, Homo sapiens
Settings: Homo sapiens, KALS-1; read-out: IC50
Description: SANGER: Inhibition of human KALS-1 cell growth in a cell viability assay.

Compound	IC50 [µM]
Cc1ccc(-n2nc(C(C)(C)C)cc2NC(=O)Nc2ccc(OCCN3CCOCC3)c3ccccc23)cc1 [DORAMAPIMOD]	> 10

System: NCI-H446;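 note: growth inhibition of NCI-H446 cells determined by a cell viability assay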
Assay: cells
Type: functional, cell-based, Homo sapiens
Settings: Homo sapiens, NCI-H446
Description: SANGER: Inhibition of human NCI-H446 cell growth in a cell viability assay.

Compound	IC50 [µM]
Cc1ccc(-n2nc(C(C)(C)C)cc2NC(=O)Nc2ccc(OCCN3CCOCC3)c3ccccc23)cc1 [DORAMAPIMOD]	> 10

System: OCI-AML2;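 note: growth inhibition of OCI-AML2 cells, read out with a cell viability assay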
Assay: cells
Type: functional, cell-based, Homo sapiens
Settings: Homo sapiens, OCI-AML2
Description: SANGER: Inhibition of human OCI-AML2 cell growth in a cell viability assay.

Compound	IC50 [µM]
Cc1ccc(-n2nc(C(C)(C)C)cc2NC(=O)Nc2ccc(OCCN3CCOCC3)c3ccccc23)cc1 [DORAMAPIMOD]	> 10

System: MN-60;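 note: growth inhibition of the MN-60 cell line, determined with a cell viability assay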
Assay: cells
Type: functional, cell-based, Homo sapiens
Settings: Homo sapiens, MN-60
Description: SANGER: Inhibition of human MN-60 cell growth in a cell viability assay.

Compound	IC50 [µM]
Cc1ccc(-n2nc(C(C)(C)C)cc2NC(=O)Nc2ccc(OCCN3CCOCC3)c3ccccc23)cc1 [DORAMAPIMOD]	> 10

System: KY821;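 note: growth inhibition of human KY821 cells, read out by a cell viability assay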
Assay: cells
Type: functional, cell-based, Homo sapiens
Settings: Homo sapiens, KY821
Description: SANGER: Inhibition of human KY821 cell growth in a cell viability assay.

Compound	IC50 [µM]
Cc1ccc(-n2nc(C(C)(C)C)cc2NC(=O)Nc2ccc(OCCN3CCOCC3)c3ccccc23)cc1 [DORAMAPIMOD]	> 10

System: NCI-H526;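 note: growth inhibition of the human NCI-H526 cell line, measured by a cell viability assay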
Assay: cells
Type: functional, cell-based, Homo sapiens
Settings: Homo sapiens, NCI-H526
Description: SANGER: Inhibition of human NCI-H526 cell growth in a cell viability assay.

Compound	IC50 [µM]
Cc1ccc(-n2nc(C(C)(C)C)cc2NC(=O)Nc2ccc(OCCN3CCOCC3)c3ccccc23)cc1 [DORAMAPIMOD]	> 10

System: D-247MG
Assay: cells
Type: functional, cell-based
Settings: Homo sapiens
Description: SANGER: Inhibition of human D-247MG cell growth in a cell viability assay.

Compound	IC50 [µM]
Cc1ccc(-n2nc(C(C)(C)C)cc2NC(=O)Nc2ccc(OCCN3CCOCC3)c3ccccc23)cc1 [DORAMAPIMOD]	> 10

System: NCI-H1770;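 note: growth inhibition of NCI-H1770 cells determined with a viability readout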
Assay: cells
Type: functional, cell-based, Homo sapiens
Settings: Homo sapiens, NCI-H1770
Description: SANGER: Inhibition of human NCI-H1770 cell growth in a cell viability assay.

Compound	IC50 [µM]
Cc1ccc(-n2nc(C(C)(C)C)cc2NC(=O)Nc2ccc(OCCN3CCOCC3)c3ccccc23)cc1 [DORAMAPIMOD]	> 10

System: LU-134-A
Assay: cells
Type: functional, cell-based, Homo sapiens
Settings: Homo sapiens, LU-134-A
Description: SANGER: Inhibition of human LU-134-A cell growth in a cell viability assay.

Compound	IC50 [µM]
Cc1ccc(-n2nc(C(C)(C)C)cc2NC(=O)Nc2ccc(OCCN3CCOCC3)c3ccccc23)cc1 [DORAMAPIMOD]	> 10

System: LC-2-ad;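 note: growth inhibition of human LC-2-ad cells, read out with a cell viability assay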
Assay: cells
Type: functional, cell-based, Homo sapiens
Settings: Homo sapiens, LC-2-ad
Description: SANGER: Inhibition of human LC-2-ad cell growth in a cell viability assay.

Compound	IC50 [µM]
Cc1ccc(-n2nc(C(C)(C)C)cc2NC(=O)Nc2ccc(OCCN3CCOCC3)c3ccccc23)cc1 [DORAMAPIMOD]	> 10
